Assay results from US20250353833A1, “DPP9 BINDING COMPOUNDS” (UNIVERSITEIT ANTWERPEN, priority 2022, published 2025).
Counter-ions that a name gives are not always drawn. Like-named read-outs stand apart in the source and are kept apart here.

Tests used:
DPP8 = DPP8 (Homo sapiens (Human), UniProt Q6V1X1); test: DPP8 enzyme inhibition, IC50 measurement (Ala-Pro-pNA release); assay type: biochemical; details: Table 3; mean ± SD (n = 3); read-out: DPP8 IC50 ± SD
Protocol: (§1) IC50 measurements. […] The Magellan software was used to process the data, which was then fitted using a non-linear fit model in GraFit 7. […] As a blank, the assay buffer was used instead of the enzyme. Screening measurements were carried out in duplo and IC50 values were determined in triplo with at least eight different inhibitor concentrations as described by Van Goethem et al.

DPP9 = DPP9 (Homo sapiens (Human), UniProt Q86TI2); test: DPP9 enzyme inhibition, IC50 measurement (Ala-Pro-pNA release); assay type: biochemical; details: for SI DPP9/8 / SI DPP9/DPP8: selectivity index; for SI DPP9/8: DPP8 IC50 over DPP9 IC50; for SI DPP9/DPP8: Table 4
Protocol: DPP4 was purified from human seminal plasma as described previously.^[3]
as §1

[1] = Table 3, mean ± SD (n = 3), read-out: DPP9 IC50 ± SD

DPP8, sequence (Q6V1X1 whole entry): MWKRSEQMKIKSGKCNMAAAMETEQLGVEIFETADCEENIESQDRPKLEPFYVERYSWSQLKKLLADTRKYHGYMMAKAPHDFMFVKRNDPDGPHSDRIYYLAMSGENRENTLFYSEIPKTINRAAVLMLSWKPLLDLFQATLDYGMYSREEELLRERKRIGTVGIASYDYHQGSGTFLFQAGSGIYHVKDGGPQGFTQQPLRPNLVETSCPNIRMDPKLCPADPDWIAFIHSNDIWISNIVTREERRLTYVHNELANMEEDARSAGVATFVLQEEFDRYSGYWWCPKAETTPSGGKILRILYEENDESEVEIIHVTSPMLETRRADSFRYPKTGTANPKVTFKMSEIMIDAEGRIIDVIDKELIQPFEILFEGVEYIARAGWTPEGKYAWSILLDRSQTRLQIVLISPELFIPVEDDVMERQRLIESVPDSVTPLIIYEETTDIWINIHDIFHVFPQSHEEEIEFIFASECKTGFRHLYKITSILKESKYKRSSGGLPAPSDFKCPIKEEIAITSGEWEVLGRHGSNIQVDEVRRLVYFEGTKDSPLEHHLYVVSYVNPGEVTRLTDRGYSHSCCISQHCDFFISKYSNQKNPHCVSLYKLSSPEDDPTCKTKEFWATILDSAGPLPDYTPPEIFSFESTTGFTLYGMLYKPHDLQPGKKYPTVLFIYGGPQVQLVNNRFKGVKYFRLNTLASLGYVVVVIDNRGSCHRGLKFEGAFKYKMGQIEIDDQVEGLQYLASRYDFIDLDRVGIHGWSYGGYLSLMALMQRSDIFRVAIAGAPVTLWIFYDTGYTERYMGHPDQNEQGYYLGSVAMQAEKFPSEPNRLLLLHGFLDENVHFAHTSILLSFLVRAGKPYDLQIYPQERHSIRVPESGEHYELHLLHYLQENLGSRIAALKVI
DPP9, sequence (Q86TI2 whole entry): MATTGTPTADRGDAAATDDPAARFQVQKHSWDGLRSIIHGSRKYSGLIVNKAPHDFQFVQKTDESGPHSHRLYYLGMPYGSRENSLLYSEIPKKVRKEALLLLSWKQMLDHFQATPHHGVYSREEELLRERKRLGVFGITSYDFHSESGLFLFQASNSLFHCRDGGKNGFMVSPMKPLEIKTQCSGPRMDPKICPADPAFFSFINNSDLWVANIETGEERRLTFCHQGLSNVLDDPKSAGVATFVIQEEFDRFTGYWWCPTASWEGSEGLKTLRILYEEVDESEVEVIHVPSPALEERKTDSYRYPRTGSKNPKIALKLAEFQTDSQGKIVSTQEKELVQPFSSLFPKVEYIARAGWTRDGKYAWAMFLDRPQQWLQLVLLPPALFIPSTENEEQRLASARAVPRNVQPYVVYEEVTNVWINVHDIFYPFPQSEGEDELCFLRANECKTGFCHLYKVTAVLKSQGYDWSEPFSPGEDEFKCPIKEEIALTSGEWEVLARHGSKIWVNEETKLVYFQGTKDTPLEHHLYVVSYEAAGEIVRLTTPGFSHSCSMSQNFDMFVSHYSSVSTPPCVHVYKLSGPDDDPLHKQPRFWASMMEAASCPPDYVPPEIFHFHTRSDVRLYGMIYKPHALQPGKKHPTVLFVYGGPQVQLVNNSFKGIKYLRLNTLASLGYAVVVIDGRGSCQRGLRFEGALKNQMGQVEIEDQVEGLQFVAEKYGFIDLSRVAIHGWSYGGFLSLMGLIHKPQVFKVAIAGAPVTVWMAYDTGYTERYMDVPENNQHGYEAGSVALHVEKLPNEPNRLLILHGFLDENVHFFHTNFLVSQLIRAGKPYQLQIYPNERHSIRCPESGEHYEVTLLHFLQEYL

Molecule | SI DPP9/DPP8 (DPP9) | other results
O=C(O)[C@@H]1CCCN1C(=O)OC12CC3CC(CC(NCC(=O)N4Cc5ccc(F)cc5C4)(C3)C1)C2 |  | IC50 (DPP8): 920 ± 121 nM; IC50 (DPP9; [1]): 8.03 nM; SI DPP9/8 (DPP9; Table 3): 114.6
O=C(N[C@@H](Cc1c[nH]c2ccccc12)C(=O)O)OC12CC3CC(CC(NCC(=O)N4Cc5ccc(F)cc5C4)(C3)C1)C2 |  | IC50 (DPP8): 164 nM; IC50 (DPP9; [1]): 6.55 nM; SI DPP9/8 (DPP9; Table 3): 25.0
3-((2-(isoindolin-2-yl)-2-oxoethyl)amino)adamantan-1-yl tert-pentylcarbamate hydrochloride [Compound 31] |  | IC50 (DPP8): 4710 ± 1590 nM; IC50 (DPP9; [1]): 378 ± 173 nM; SI DPP9/8 (DPP9; Table 3): 12.5
N#C[C@@H]1[C@@H]2C[C@@H]2CN1C(=O)CNC12CC3CC(CC(O)(C3)C1)C2 [Compound 5l, (1R,2S,5S)-3-((3-hydroxyadamantan-1-yl)glycyl)-3-azabicyclo[3.1.0]hexane-2-carbonitrile] |  | DPP9/8 selectivity index (DPP9): > 10
CCCCNC12CC3CC(C1)CC(NCC(=O)N1Cc4ccccc4C1)(C3)C2 [Compound 25, 2-((3-(butylamino)adamantan-1-yl)amino)-1-(isoindolin-2-yl)ethan-1-one 2,2,2-trifluoroacetate] |  | IC50 (DPP9; [1]): 477 ± 28 nM; SI DPP9/8 (DPP9; Table 3): >21
N#Cc1ccc(CNC23CC4CC(CC(NCC(=O)N5Cc6ccccc6C5)(C4)C2)C3)cc1 [Compound 26, 4-(((-3-((2-(isoindolin-2-yl)-2-oxoethyl)amino)adamantan-1-yl)amino)methyl)benzonitrile] |  | IC50 (DPP8): 672 ± 412 nM; IC50 (DPP9; [1]): 50.6 ± 28.7 nM; SI DPP9/8 (DPP9; Table 3): 13.3
Cl.O=C(NC12CC3CC(CC(NCC(=O)N4Cc5ccc(F)cc5C4)(C3)C1)C2)c1ccc(-c2ccccc2)cc1 [Compound 87, N-((1s,3r,5R,7S)-3-((2-(5-fluoroisoindolin-2-yl)-2-oxoethyl)amino)adamantan-1-yl)-[1,1′-biphenyl]-4-carboxamide hydrochloride] | 54 | 
Cl.O=C(NC12CC3CC(CC(NCC(=O)N4Cc5ccc(F)cc5C4)(C3)C1)C2)c1ccc(-c2ccccc2)nc1 [Compound 89, N-((1s,3r,5R,7S)-3-((2-(5-fluoroisoindolin-2-yl)-2-oxoethyl)amino)adamantan-1-yl)-6-phenylnicotinamide hydrochloride] | 28 | 
Cl.O=C(NC12CC3CC(CC(NCC(=O)N4Cc5ccc(F)cc5C4)(C3)C1)C2)c1ccc(-c2cccs2)cc1 [Compound 92, N-((1s,3r,5R,7S)-3-((2-(5-fluoroisoindolin-2-yl)-2-oxoethyl)amino)adamantan-1-yl)-4-(thiophen-2-yl)benzamide hydrochloride] | 27 | 
Cl.O=C(NC12CC3CC(CC(NCC(=O)N4Cc5ccc(F)cc5C4)(C3)C1)C2)c1ccc(-c2ccc(F)cc2)cc1 [Compound 93, 4′-fluoro-N-((1s,3r,5R,7S)-3-((2-(5-fluoroisoindolin-2-yl)-2-oxoethyl)amino)adamantan-1-yl)-[1,1′-biphenyl]-4-carboxamide hydrochloride] | 59 | 
Cl.O=C(NC12CC3CC(CC(NCC(=O)N4Cc5ccc(F)cc5C4)(C3)C1)C2)c1ccc(-c2ccccc2F)cc1 [Compound 94, 2′-fluoro-N-((1s,3r,5R,7S)-3-((2-(5-fluoroisoindolin-2-yl)-2-oxoethyl)amino)adamantan-1-yl)-[1,1′-biphenyl]-4-carboxamide hydrochloride] | 26 | 
Cl.N#Cc1ccc(C(=O)NC23CC4CC(CC(NCC(=O)N5Cc6ccc(F)cc6C5)(C4)C2)C3)cc1 [Compound 96, 4-cyano-N-((1s,3r,5R,7S)-3-((2-(5-fluoroisoindolin-2-yl)-2-oxoethyl)amino)adamantan-1-yl)benzamide hydrochloride] | 12 | 
Cl.O=C(NC12CC3CC(CC(NCC(=O)N4Cc5ccc(F)cc5C4)(C3)C1)C2)c1ccc(-c2ccccc2)s1 [Compound 97, N-((1s,3r,5R,7S)-3-((2-(5-fluoroisoindolin-2-yl)-2-oxoethyl)amino)adamantan-1-yl)-5-phenylthiophene-2-carboxamide hydrochloride] | 11 | 
Cl.O=C(NC12CC3CC(CC(NCC(=O)N4Cc5ccc(F)cc5C4)(C3)C1)C2)c1cnc2ccccc2c1 [Compound 99, N-((1s,3r,5R,7S)-3-((2-(5-fluoroisoindolin-2-yl)-2-oxoethyl)amino)adamantan-1-yl)quinoline-3-carboxamide hydrochloride] | 13 | 
Cl.O=C(NC12CC3CC(CC(NCC(=O)N4Cc5ccc(F)cc5C4)(C3)C1)C2)c1ccc(-c2cccs2)nc1 [Compound 100, N-((1s,3r,5R,7S)-3-((2-(5-fluoroisoindolin-2-yl)-2-oxoethyl)amino)adamantan-1-yl)-6-(thiophen-2-yl)nicotinamide hydrochloride] | 22 | 
Cl.O=C(NC12CC3CC(CC(NCC(=O)N4Cc5ccc(F)cc5C4)(C3)C1)C2)c1cccc(-c2ccccc2)c1 [Compound 101, N-((1s,3r,5R,7S)-3-((2-(5-fluoroisoindolin-2-yl)-2-oxoethyl)amino)adamantan-1-yl)-[1,1′-biphenyl]-3-carboxamide hydrochloride] | 4 | 
Cl.O=C(CNC12CC3CC(C1)CC(NS(=O)(=O)c1ccc(-c4ccccc4)cc1)(C3)C2)N1Cc2ccc(F)cc2C1 [Compound 102, N-((1s,3r,5R,7S)-3-((2-(5-fluoroisoindolin-2-yl)-2-oxoethyl)amino)adamantan-1-yl)-[1,1′-biphenyl]-4-sulfonamide hydrochloride] | 4 | 
COC(=O)c1csc(-c2ccc(C(=O)NC34CC5CC(CC(NCC(=O)N6Cc7ccc(F)cc7C6)(C5)C3)C4)cc2)c1.Cl [Compound 103, Methyl 5-(4-((-3-((2-(5-fluoroisoindolin-2-yl)-2-oxoethyl)amino)adamantan-1-yl)carbamoyl)phenyl)thiophene-3-carboxylate hydrochloride] | 25 | 
COC(=O)c1ccc(-c2ccc(C(=O)NC34CC5CC(CC(NCC(=O)N6Cc7ccc(F)cc7C6)(C5)C3)C4)cc2)cc1 [Compound 104, Methyl 4′-((-3-((2-(5-fluoroisoindolin-2-yl)-2-oxoethyl)amino)adamantan-1-yl)carbamoyl)-[1,1′-biphenyl]-4-carboxylate hydrochloride] | 46 | IC50 (DPP9; read-out: IC50 DPP9): 1 nM
Cl.O=C(NC12CC3CC(CC(NCC(=O)N4Cc5ccc(F)cc5C4)(C3)C1)C2)c1ccc(-c2ccc(O)cc2)cc1 [Compound 105, N-(-3-((2-(5-fluoroisoindolin-2-yl)-2-oxoethyl)amino)adamantan-1-yl)-4′-hydroxy-[1,1′-biphenyl]-4-carboxamide hydrochloride] | 27 | 
O=C(CNC12CC3CC(C1)CC(Nc1ccc(-c4ccccc4)nc1)(C3)C2)N1Cc2ccc(F)cc2C1 [Compound 109, 1-(5-fluoroisoindolin-2-yl)-2-((-3-((6-phenylpyridin-3-yl)amino)adamantan-1-yl)amino)ethan-1-one dihydrochloride] | 2 | 
O=C(CCCCC1SCC2NC(=O)NC21)NCCOCCOCCOCCNC(=O)NC12CC3CC(CC(NCC(=O)N4Cc5cc(F)c(F)cc5C4)(C3)C1)C2 (stereo not drawn) [Compound 115, N-(1-((3-((2-(5,6-difluoroisoindolin-2-yl)-2-oxoethyl)amino)adamantan-1-yl)amino)-1-oxo-5,8,11-trioxa-2-azatridecan-13-yl)-5-(2-oxohexahydro-1H thieno[3,4-d]imidazol-4-yl)pentanamide] | 7 | 
CC[N+]1=C(/C=C/C=C2/N(CCCCCC(=O)NC34CC5CC(CC(NCC(=O)N6Cc7ccc(F)cc7C6)(C5)C3)C4)c3ccc(S(=O)(=O)O)cc3C2(C)C)C(C)(C)c2cc(S(=O)(=O)[O-])ccc21 [Compound 120, 1-ethyl-2-((E)-3-((E)-1-(6-((-3-((2-(5-fluoroisoindolin-2-yl)-2-oxoethyl)amino)adamantan-1-yl)amino)-6-oxohexyl)-3,3-dimethyl-5-sulfoindolin-2-ylidene)prop-1-en-1-yl)-3,3-dimethyl-3H-indol-1-ium-5-sulfonate] | 21 | 
Cc1ncsc1-c1ccc(CNC(=O)[C@@H]2C[C@@H](O)CN2C(=O)[C@@H](NC(=O)c2csc(-c3ccc(C(=O)NC45CC6CC(CC(NCC(=O)N7Cc8ccc(F)cc8C7)(C6)C4)C5)cc3)c2)C(C)(C)C)cc1 [Compound 122, (2S,4R)-1-((2S)-2-(5-(4-((3-((2-(5-fluoroisoindolin-2-yl)-2-oxoethyl)amino)adamantan-1-yl)carbamoyl)phenyl)thiophene-3-carboxamido)-3,3-dimethylbutanoyl)-4-hydroxy-N-(4-(4-methylthiazol-5-yl)benzyl)pyrrolidine-2-carboxamide] | 11 | 
Cc1ncsc1-c1ccc(CNC(=O)[C@@H]2C[C@@H](O)CN2C(=O)[C@@H](NC(=O)c2ccc(-c3ccc(C(=O)NC45CC6CC(CC(NCC(=O)N7Cc8ccc(F)cc8C7)(C6)C4)C5)cc3)cc2)C(C)(C)C)cc1 [Compound 123, N4-(3-((2-(5-fluoroisoindolin-2-yl)-2-oxoethyl)amino)adamantan-1-yl)-N4′-((S)-1-((2S,4R)-4-hydroxy-2-((4-(4-methylthiazol-5-yl)benzyl)carbamoyl)pyrrolidin-1-yl)-3,3-dimethyl-1-oxobutan-2-yl)-[1,1′-biphenyl]-4,4′-dicarboxamide] | 3 | 
Cc1ncsc1-c1ccc(CNC(=O)[C@@H]2C[C@@H](O)CN2C(=O)[C@@H](NC(=O)CCOCCOc2ccc(-c3ccc(C(=O)NC45CC6CC(CC(NCC(=O)N7Cc8ccc(F)cc8C7)(C6)C4)C5)cc3)cc2)C(C)(C)C)cc1 [Compound 125, (2S,4R)-1-((2S)-2-(3-(2-((4′-((3-((2-(5-fluoroisoindolin-2-yl)-2-oxoethyl)amino)adamantan-1-yl)carbamoyl)-[1,1′-biphenyl]-4-yl)oxy)ethoxy)propanamido)-3,3-dimethylbutanoyl)-4-hydroxy-N-(4-(4-methylthiazol-5-yl)benzyl)pyrrolidine-2-carboxamide] | 9 | 
